Reference: ChEMBL document CHEMBL1201862, “PubChem BioAssay data set” (2004)
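Cultured in 96-well plates, cells were exposed to test compound for 48 hours across five concentrations. GI50 is the concentration that inhibits growth by half.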 Active and inactive are the calls of the source. No stated cut-off is given here; in the data, active = GI50 up to about 1.1 µM and inactive = higher.

What was measured:
Experiment in all cases: NCI tumour cell line growth inhibition, 48 h
786-0 = tested on: 786-0
A549 = tested on: A549
CAKI-1 = tested on: CAKI-1
HOP-92 = tested on: HOP-92
K562 = tested on: K562
KM12 = tested on: KM12
MOLT-4 = tested on: MOLT-4
Malme-3M = tested on: Malme-3M
NCI-H226 = tested on: NCI-H226
NCI-H23 = tested on: NCI-H23
NCI-H460 = tested on: NCI-H460
NCI-H522 = tested on: NCI-H522
OVCAR-3 = tested on: OVCAR-3
OVCAR-5 = tested on: OVCAR-5
OVCAR-8 = tested on: OVCAR-8
SK-MEL-28 = tested on: SK-MEL-28
SK-MEL-2 = tested on: SK-MEL-2
TK-10 = tested on: TK-10
UO-31 = tested on: UO-31
UACC-257 = tested on: UACC-257

Compound	GI50 (786-0)	GI50 (A549)	GI50 (CAKI-1)	GI50 (HOP-92)	GI50 (K562)	GI50 (KM12)	GI50 (MOLT-4)	GI50 (Malme-3M)	GI50 (NCI-H226)	GI50 (NCI-H23)	GI50 (NCI-H460)	GI50 (NCI-H522)	GI50 (OVCAR-3)	GI50 (OVCAR-5)	GI50 (OVCAR-8)	GI50 (SK-MEL-28)	GI50 (SK-MEL-2)	GI50 (TK-10)	GI50 (UO-31)	GI50 (UACC-257)
O=C1c2ccccc2C(=O)c2nc3ccc(Cl)cc3cc21	> 100 µM (inactive)	> 100 µM (inactive)	> 100 µM (inactive)	> 100 µM (inactive)	> 100 µM (inactive)	> 100 µM (inactive)	> 100 µM (inactive)	> 100 µM (inactive)	> 100 µM (inactive)	> 100 µM (inactive)	> 100 µM (inactive)	> 100 µM (inactive)	> 100 µM (inactive)	> 100 µM (inactive)	> 100 µM (inactive)	> 100 µM (inactive)	> 100 µM (inactive)	> 100 µM (inactive)	> 100 µM (inactive)	–
COc1ccc([C@H]2CC(=O)NCCCCN2)cc1	> 100 µM (inactive)	> 100 µM (inactive)	> 100 µM (inactive)	57.1 µM (inactive)	> 100 µM (inactive)	> 100 µM (inactive)	> 100 µM (inactive)	> 100 µM (inactive)	> 100 µM (inactive)	> 100 µM (inactive)	> 100 µM (inactive)	> 100 µM (inactive)	–	> 100 µM (inactive)	> 100 µM (inactive)	> 100 µM (inactive)	> 100 µM (inactive)	> 100 µM (inactive)	> 100 µM (inactive)	> 100 µM (inactive)
COc1ccc(/C=C2\NC(=S)N(/C=C3\C(=O)Oc4ccccc4C3=O)C2=O)cc1OC	> 100 µM (inactive)	> 100 µM (inactive)	> 100 µM (inactive)	73.6 µM (inactive)	> 100 µM (inactive)	90.2 µM (inactive)	> 100 µM (inactive)	–	> 100 µM (inactive)	> 100 µM (inactive)	> 100 µM (inactive)	22.6 µM (inactive)	87.3 µM (inactive)	> 100 µM (inactive)	> 100 µM (inactive)	–	> 100 µM (inactive)	> 100 µM (inactive)	54.6 µM (inactive)	> 100 µM (inactive)
COc1cccc(CCCNC(=O)Cc2cc(OC)c(OC)cc2CO)c1	> 100 µM (inactive)	> 100 µM (inactive)	> 100 µM (inactive)	> 100 µM (inactive)	> 100 µM (inactive)	> 100 µM (inactive)	> 100 µM (inactive)	> 100 µM (inactive)	> 100 µM (inactive)	> 100 µM (inactive)	> 100 µM (inactive)	–	> 100 µM (inactive)	> 100 µM (inactive)	> 100 µM (inactive)	> 100 µM (inactive)	> 100 µM (inactive)	> 100 µM (inactive)	> 100 µM (inactive)	> 100 µM (inactive)
C=CC1=C(C)c2cc3[nH]c(c4c5nc(cc6[nH]c(cc1n2)c(C=O)c6CC)C(C)=C5C(=O)[C@@H]4C(=O)OC)[C@@H](CCC(=O)O)[C@@H]3C	> 100 µM (inactive)	> 100 µM (inactive)	> 100 µM (inactive)	> 100 µM (inactive)	51.3 µM (inactive)	21.5 µM (inactive)	43.6 µM (inactive)	> 100 µM (inactive)	> 100 µM (inactive)	24.7 µM (inactive)	> 100 µM (inactive)	30.8 µM (inactive)	–	> 100 µM (inactive)	53.3 µM (inactive)	> 100 µM (inactive)	> 100 µM (inactive)	> 100 µM (inactive)	32.7 µM (inactive)	83.9 µM (inactive)
COc1ccc(/C=C2\Sc3nnc(-c4ccccc4)n3N=C2c2cc(F)c(Cl)cc2Cl)cc1OC	48.4 µM (inactive)	–	31 µM (inactive)	37 µM (inactive)	9.86 µM (inactive)	26.7 µM (inactive)	0.948 µM (active)	–	> 100 µM (inactive)	51.2 µM (inactive)	> 100 µM (inactive)	12.6 µM (inactive)	> 100 µM (inactive)	> 100 µM (inactive)	48.9 µM (inactive)	> 100 µM (inactive)	> 100 µM (inactive)	> 100 µM (inactive)	31.1 µM (inactive)	> 100 µM (inactive)
N/N=C(\Cc1ccccc1)NN=C(N)N	> 100 µM (inactive)	> 100 µM (inactive)	> 100 µM (inactive)	> 100 µM (inactive)	> 100 µM (inactive)	> 100 µM (inactive)	47.1 µM (inactive)	> 100 µM (inactive)	> 100 µM (inactive)	> 100 µM (inactive)	> 100 µM (inactive)	32.1 µM (inactive)	–	> 100 µM (inactive)	> 100 µM (inactive)	> 100 µM (inactive)	> 100 µM (inactive)	> 100 µM (inactive)	> 100 µM (inactive)	> 100 µM (inactive)
Cc1c[nH]c(C(=O)O)c1-c1cccn1-c1ccc(Cl)cc1[N+](=O)[O-]	> 100 µM (inactive)	83.4 µM (inactive)	> 100 µM (inactive)	56 µM (inactive)	73.8 µM (inactive)	76.6 µM (inactive)	63.1 µM (inactive)	–	92.3 µM (inactive)	> 100 µM (inactive)	> 100 µM (inactive)	72.8 µM (inactive)	11.8 µM (inactive)	> 100 µM (inactive)	61.7 µM (inactive)	> 100 µM (inactive)	> 100 µM (inactive)	> 100 µM (inactive)	45.9 µM (inactive)	> 100 µM (inactive)
Clc1ccc(/N=C/c2cc3cc(Br)ccc3nc2Cl)cc1	> 50 µM (inactive)	–	1.95 µM (inactive)	> 50 µM (inactive)	4.34 µM (inactive)	20 µM (inactive)	13.5 µM (inactive)	> 50 µM (inactive)	> 50 µM (inactive)	> 50 µM (inactive)	18.1 µM (inactive)	15.1 µM (inactive)	–	> 50 µM (inactive)	28.1 µM (inactive)	46.5 µM (inactive)	10.8 µM (inactive)	–	36.8 µM (inactive)	34.1 µM (inactive)
Cc1ccc(/C=N/Nc2ccccn2)s1	> 54.7 µM (inactive)	> 100 µM (inactive)	> 100 µM (inactive)	> 100 µM (inactive)	–	> 100 µM (inactive)	> 100 µM (inactive)	> 100 µM (inactive)	> 56.5 µM (inactive)	> 100 µM (inactive)	> 100 µM (inactive)	12.5 µM (inactive)	> 55.7 µM (inactive)	> 100 µM (inactive)	> 100 µM (inactive)	> 100 µM (inactive)	> 100 µM (inactive)	> 31.6 µM (inactive)	97.7 µM (inactive)	> 100 µM (inactive)
CCOc1cc(C2SCC(=O)N2c2ccc3c(c2)Oc2c(Cl)c4c(c(Cl)c2=N3)Oc2cc(N3C(=O)CSC3c3ccc(O)c(OCC)c3)ccc2N=4)ccc1O (stereo unspecified)	30.1 µM (inactive)	23.8 µM (inactive)	> 100 µM (inactive)	24.5 µM (inactive)	27 µM (inactive)	40.9 µM (inactive)	2.25 µM (inactive)	–	25.9 µM (inactive)	21 µM (inactive)	30.6 µM (inactive)	34 µM (inactive)	26.3 µM (inactive)	> 100 µM (inactive)	32.7 µM (inactive)	37.8 µM (inactive)	27.5 µM (inactive)	41.7 µM (inactive)	68.1 µM (inactive)	80.9 µM (inactive)
N#C/C(=C\c1ccc2ccccc2c1)c1ccccc1	18.9 µM (inactive)	–	17.8 µM (inactive)	65.9 µM (inactive)	–	27.7 µM (inactive)	39.5 µM (inactive)	–	53.2 µM (inactive)	> 100 µM (inactive)	17.1 µM (inactive)	12 µM (inactive)	13 µM (inactive)	98.2 µM (inactive)	32.4 µM (inactive)	45.4 µM (inactive)	25.8 µM (inactive)	34.3 µM (inactive)	25.5 µM (inactive)	25.5 µM (inactive)
N[C@]1(C(=O)O)C[C@@H]2C(Br)=NO[C@@H]2C1	> 100 µM (inactive)	> 100 µM (inactive)	> 100 µM (inactive)	> 100 µM (inactive)	–	> 100 µM (inactive)	> 100 µM (inactive)	> 100 µM (inactive)	> 100 µM (inactive)	> 100 µM (inactive)	55.7 µM (inactive)	> 100 µM (inactive)	> 100 µM (inactive)	> 100 µM (inactive)	> 100 µM (inactive)	–	> 100 µM (inactive)	> 100 µM (inactive)	> 100 µM (inactive)	> 100 µM (inactive)
COC(=O)C1=NC(=S)NC(c2ccccc2)C1c1nc2ccccc2o1 (stereo unspecified)	> 50 µM (inactive)	> 50 µM (inactive)	> 50 µM (inactive)	> 50 µM (inactive)	> 50 µM (inactive)	> 50 µM (inactive)	> 50 µM (inactive)	> 50 µM (inactive)	> 50 µM (inactive)	> 50 µM (inactive)	> 50 µM (inactive)	> 50 µM (inactive)	> 50 µM (inactive)	> 50 µM (inactive)	> 50 µM (inactive)	–	> 50 µM (inactive)	> 50 µM (inactive)	> 50 µM (inactive)	> 50 µM (inactive)
O=C1CCCCC/C1=C\c1cccc(Cl)c1	41.1 µM (inactive)	63.2 µM (inactive)	72.6 µM (inactive)	35.6 µM (inactive)	–	30.8 µM (inactive)	27.4 µM (inactive)	42.9 µM (inactive)	34.4 µM (inactive)	42.9 µM (inactive)	29.6 µM (inactive)	39.2 µM (inactive)	71.3 µM (inactive)	> 100 µM (inactive)	–	49.4 µM (inactive)	46.5 µM (inactive)	–	24.1 µM (inactive)	42.1 µM (inactive)
